Measured values as given in patent US10251395B2, “Substituted furano-/thienocycloalkylamino-2-pyrimidine derivatives and use thereof for controlling undesired plant growth” (Bayer CropScience Aktiengesellschaft, priority 2015, dated 2019).

How the values were obtained:
[1] = test system: Abutilon theophrasti; experiment: Pre-emergence herbicidal effect; format: in vivo; conditions: Dosage 320 g/ha, scored visually after 3 weeks
Outline: (§1)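 Seeds sown in sandy loam and covered with soil; WP or EC formulations sprayed onto the soil surface as aqueous suspension/emulsion at 600 to 800 L/ha water with 0.2% wetting agent. Greenhouse-grown; damage scored visually after 3 weeks against untreated controls (100% = plants dead, 0% = like control).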

[2] = test system: Amaranthus retroflexus; experiment: Pre-emergence herbicidal effect; format: in vivo; conditions: scored visually after 3 weeks
Outline: as §1

[3] = test system: Echinochloa crus-galli; experiment: Pre-emergence herbicidal effect; format: in vivo; conditions: Dosage 320 g/ha, scored visually after 3 weeks
Outline: as §1

[4] = test system: Lolium multiflorum; experiment: Pre-emergence herbicidal effect; format: in vivo; conditions: Dosage 320 g/ha, scored visually after 3 weeks
Outline: as §1

[5] = test system: Matricaria inodora; experiment: Pre-emergence herbicidal effect; format: in vivo; conditions: scored visually after 3 weeks
Outline: as §1

[6] = test system: Polygonum convolvulus; experiment: Pre-emergence herbicidal effect; format: in vivo; conditions: Dosage 320 g/ha, scored visually after 3 weeks
Outline: as §1

[7] = test system: Setaria viridis; experiment: Pre-emergence herbicidal effect; format: in vivo; conditions: scored visually after 3 weeks
Outline: as §1

[8] = test system: Stellaria media; experiment: Pre-emergence herbicidal effect; format: in vivo; conditions: scored visually after 3 weeks
Outline: as §1

[9] = test system: Veronica persica; experiment: Pre-emergence herbicidal effect; format: in vivo; conditions: scored visually after 3 weeks
Outline: as §1

[10] = test system: Viola tricolor; experiment: Pre-emergence herbicidal effect; format: in vivo; conditions: scored visually after 3 weeks
Outline: as §1

[11] = test system: Abutilon theophrasti; experiment: Post-emergence herbicidal effect; format: in vivo; conditions: assessed visually after about 3 weeks vs untreated controls
Outline: (§2)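 Percent herbicidal action was judged by eye roughly 3 weeks post-application, 0% matching control plants and 100% meaning plant death. Seedlings, greenhouse-grown in sandy loam, received the spray at one leaf.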

[12] = test system: Echinochloa crus-galli; experiment: Post-emergence herbicidal effect; format: in vivo; conditions: 320 g/ha, assessed visually after about 3 weeks vs untreated controls
Outline: as §2

[13] = test system: Polygonum convolvulus; experiment: Post-emergence herbicidal effect; format: in vivo; conditions: 320 g/ha, assessed visually after about 3 weeks vs untreated controls
Outline: as §2

[14] = test system: Stellaria media; experiment: Post-emergence herbicidal effect; format: in vivo; conditions: 320 g/ha, assessed visually after about 3 weeks vs untreated controls
Outline: as §2

[15] = logP (HCOOH); format: physicochemical; conditions: HCOOH
Description: Table 2 (physicochemical characterization of selected synthesis examples)

[16] = test system: Amaranthus retroflexus; experiment: Post-emergence herbicidal effect; format: in vivo; conditions: 320 g/ha, assessed visually after about 3 weeks vs untreated controls
Outline: as §2

[17] = test system: Veronica persica; experiment: Post-emergence herbicidal effect; format: in vivo; conditions: 320 g/ha, assessed visually after about 3 weeks vs untreated controls
Outline: as §2

[18] = test system: Viola tricolor; experiment: Post-emergence herbicidal effect; format: in vivo; conditions: assessed visually after about 3 weeks vs untreated controls
Outline: as §2

Cc1cc2c(s1)CCC2Nc1ncc(S(C)(=O)=O)c(N)n1 (racemic) [compound 4]
ABUTH pre-emergence efficacy (herbicidal activity) [1]: 100% | AMARE pre-emergence efficacy (herbicidal activity) ([2]; Dosage 80 g/ha): 100% | AMARE pre-emergence efficacy (herbicidal activity) ([2]; Dosage 320 g/ha): 100% | ECHCG pre-emergence efficacy (herbicidal activity) [3]: 100% | LOLMU pre-emergence efficacy (herbicidal activity) [4]: 100% | MATIN pre-emergence efficacy (herbicidal activity) ([5]; Dosage 80 g/ha): 100% | MATIN pre-emergence efficacy (herbicidal activity) ([5]; Dosage 320 g/ha): 100% | POLCO pre-emergence efficacy (herbicidal activity) [6]: 100% | SETVI pre-emergence efficacy (herbicidal activity) ([7]; Dosage 80 g/ha): 100% | SETVI pre-emergence efficacy (herbicidal activity) ([7]; Dosage 320 g/ha): 100% | STEME pre-emergence efficacy (herbicidal activity) ([8]; Dosage 80 g/ha): 100% | STEME pre-emergence efficacy (herbicidal activity) ([8]; Dosage 320 g/ha): 100% | VERPE pre-emergence efficacy (herbicidal activity) ([9]; Dosage 80 g/ha): 100% | VERPE pre-emergence efficacy (herbicidal activity) ([9]; Dosage 320 g/ha): 100% | VIOTR pre-emergence efficacy (herbicidal activity) ([10]; Dosage 80 g/ha): 100% | VIOTR pre-emergence efficacy (herbicidal activity) ([10]; Dosage 320 g/ha): 100% | post-emergence efficacy ABUTH ([11]; 80 g/ha): 80% | post-emergence efficacy ABUTH ([11]; 320 g/ha): 90% | post-emergence efficacy ECHCG [12]: 100% | post-emergence efficacy POLCO [13]: 100% | post-emergence efficacy STEME [14]: 100%

Cc1cc2c(o1)CC(C)(C)CC2Nc1ncc(S(C)(=O)=O)c(N)n1 (racemic) [compound 15]
logP (HCOOH) [15]: oily; logP (HCOOH): 2.36; 1H NMR (CDCl3, 400 MHZ, δ in ppm): 1.05 (s, 3H, 3H of

Nc1nc(NC2CCCc3sc(Cl)cc32)ncc1C(F)(F)F (racemic) [compound 22]
ABUTH pre-emergence efficacy (herbicidal activity) [1]: 80% | AMARE pre-emergence efficacy (herbicidal activity) ([2]; Dosage 320 g/ha): 100% | ECHCG pre-emergence efficacy (herbicidal activity) [3]: 100% | LOLMU pre-emergence efficacy (herbicidal activity) [4]: 100% | MATIN pre-emergence efficacy (herbicidal activity) ([5]; Dosage 320 g/ha): 100% | POLCO pre-emergence efficacy (herbicidal activity) [6]: 100% | SETVI pre-emergence efficacy (herbicidal activity) ([7]; Dosage 320 g/ha): 100% | STEME pre-emergence efficacy (herbicidal activity) ([8]; Dosage 320 g/ha): 100% | VERPE pre-emergence efficacy (herbicidal activity) ([9]; Dosage 320 g/ha): 100% | VIOTR pre-emergence efficacy (herbicidal activity) ([10]; Dosage 320 g/ha): 100% | post-emergence efficacy ABUTH ([11]; 320 g/ha): 90% | post-emergence efficacy AMARE [16]: 100% | post-emergence efficacy ECHCG [12]: 90% | post-emergence efficacy POLCO [13]: 90% | post-emergence efficacy STEME [14]: 90% | post-emergence efficacy VERPE [17]: 90% | post-emergence efficacy VIOTR ([18]; 320 g/ha): 90%

Nc1nc(NC2CCc3ccsc32)ncc1[N+](=O)[O-] (racemic) [compound 32]
logP (HCOOH) [15]: solid; m.p.: 189.5° C.; logP (HCOOH): 1.53;

N#Cc1cnc(NC2CCc3cc(Cl)sc32)nc1N (racemic) [compound 49]
AMARE pre-emergence efficacy (herbicidal activity) ([2]; Dosage 320 g/ha): 100% | STEME pre-emergence efficacy (herbicidal activity) ([8]; Dosage 80 g/ha): 90% | STEME pre-emergence efficacy (herbicidal activity) ([8]; Dosage 320 g/ha): 100% | VERPE pre-emergence efficacy (herbicidal activity) ([9]; Dosage 320 g/ha): 70% | VIOTR pre-emergence efficacy (herbicidal activity) ([10]; Dosage 80 g/ha): 100% | VIOTR pre-emergence efficacy (herbicidal activity) ([10]; Dosage 320 g/ha): 100% | post-emergence efficacy VIOTR ([18]; 80 g/ha): 80% | post-emergence efficacy VIOTR ([18]; 320 g/ha): 90% | logP (HCOOH) [15]: solid; logP (HCOOH): 2.32;

O=C1CCCc2nc(NC3CCCc4occc43)ncc21 (racemic) [compound 54]
logP (HCOOH) [15]: oily; logP (HCOOH): 2.35; 1H NMR (CDCl3, 400 MHZ, δ in ppm): 1.80-2.00 (m, 4H,

Cc1sc(C)c2c1CCCC2Nc1ncc(C#N)c(N)n1 (racemic) [compound 56]
logP (HCOOH) [15]: oily; logP (HCOOH): 2.66;

Cc1nc(NC2CCCc3c(C)sc(C)c32)nc(N)c1C#N (racemic) [compound 64]
logP (HCOOH) [15]: solid, logP (HCOOH): 2.71; 1H NMR (CDCl3, 400 MHZ, δ in ppm): 1.75 (m, 3H, 3H
